Measurements reported in patent publication US20080221047A1, “Aminoakyl methacrylate copolymer E for maintaining solubility of poorly-soluble drug” (ASTELLAS PHARMA INC.,, priority 2006, published 2008).

What was measured:
[1] = cited from earlier work
[2] = Reprecipitation (dissolution) test for tacrolimus dissolved in ethanol, Experimental Example 6; type: physicochemical
Procedure: (§1) Each (300 mg) of the aminoalkyl methacrylate copolymer E having a solubility enhanced with acid prepared in Example 4, and hydroxypropylmethylcellulose 2910 (TC-5E, Shin-Etsu Chemical Co., Ltd.) was dissolved in 300 mL of a second fluid for disintegrating test used in a disintegrating test described in the Japanese Pharmacopoeia fifteenth edition. For comparison, 300 mL of a second fluid for disintegrating test used in a disintegrating test described in the Japanese Pharmacopoeia fifteenth edition without such additives was prepared.
To each vessel, 1 mL of a solution of tacrolimus (100 mg/mL) in ethanol was added. Samples were taken at regular intervals, and centrifuged at 3000 rpm for 15 minutes. Tacrolimus dissolved in each supernatant was measured by a high performance liquid chromatography.

[3] = Reprecipitation (dissolution) test for compound A dissolved in acetonitrile, Experimental Example 1; type: physicochemical
Procedure: as §1, with “(50” for “(300”, “1,” for “4, and”, “Ltd.), and copolyvidone (Kollidon VA-64, BASF)” for “Ltd.)”, “500” for “300”
(§2) To each vessel, 2 mL of a solution of compound A (25 mg/mL) in acetonitrile was added, and an automated dissolution tester (manufactured by Toyama Sangyo Co., Ltd.) was used to carry out a reprecipitation test for compound A, in accordance with a dissolution test, method 2, described in the Japanese Pharmacopoeia. The ultraviolet absorbance of compound A was measured at a wavelength of 273 nm. The paddle rotation speed was 50 rpm. The percentage dissolved was calculated on the basis that an absorbance of 0.576 when measured using a 1 mm cell was regarded as a concentration of 100 μg/mL (compound A).

[4] = Reprecipitation test for compound A with copolymers of different amounts of neutralization, Experimental Example 3; type: physicochemical; details: compound A in acetonitrile; fluid containing copolymer E of Examples 5, 6 or 7 (every Example)
Procedure: Each of the aminoalkyl methacrylate copolymers E having a solubility enhanced with acid prepared in Examples 5, 6, and 7 was dissolved in 500 mL of a second fluid for dissolution test used in a dissolution test described in the Japanese Pharmacopoeia fifteenth edition.
as §2, with “(Toyama” for “(manufactured by Toyama”, “The” for “The ultraviolet”

[5] = Reprecipitation test for compound A with copolymer solubilized with citric acid, Experimental Example 4; type: physicochemical; details: compound A in acetonitrile; fluid containing copolymer E of Example 8 (citric acid)
Procedure: as §1, with “(50” for “(300”, “copolymers” for “copolymer”, “Examples 1” for “Example 4,”, “8” for “hydroxypropylmethylcellulose 2910 (TC-5E, Shin-Etsu Chemical Co., Ltd.)”, “500” for “300”
as §2, with “(Toyama” for “(manufactured by Toyama”

[6] = Reprecipitation (dissolution) test for compound A dissolved in polyethylene glycol 400, Experimental Example 2; type: physicochemical; details: compound A in polyethylene glycol 400
Procedure: as §1, with “(50” for “(300”, “1,” for “4,”, “500” for “300”, “dissolution” for “disintegrating”
as §2, with “polyethylene glycol 400 (Kanto Chemical Co., Inc.)” for “acetonitrile”

[7] = fluid containing hydroxypropylmethylcellulose 2910, after 2 hours

| SMILES | water solubility [1] [µg/mL] | reprecipitation ([2]; absence of additives) | percentage dissolved ([2]; fluid containing copolymer E of Example 4, after 24 hours) [%] | percentage dissolved [2, 7] | percentage dissolved ([3]; compound A in acetonitrile added to JP second fluid containing copolymer E of Example 1 (50 mg/500 mL), after 24 hours) | percentage dissolved ([3]; compound A in acetonitrile added to JP second fluid containing copolyvidone (50 mg/500 mL), after 2 hours) | percentage dissolved ([3]; compound A in acetonitrile added to JP second fluid containing hydroxypropylmethylcellulose 2910 (50 mg/500 mL), after 2 hours) | reprecipitation ([3]; compound A in acetonitrile added to JP second fluid, absence of additives) | maintenance of solubility [4] | maintenance of solubility [5] | reprecipitation ([6]; absence of additives) | percentage dissolved ([6]; fluid containing copolymer E of Example 1, after 24 hours) | percentage dissolved [6, 7] |
| --- | --- | --- | --- | --- | --- | --- | --- | --- | --- | --- | --- | --- | --- |
| C=CC[C@@H]1/C=C(\C)C[C@H](C)C[C@H](OC)[C@H]2O[C@@](O)(C(=O)C(=O)N3CCCC[C@H]3C(=O)O[C@H](/C(C)=C/[C@@H]3CC[C@@H](O)[C@H](OC)C3)[C@H](C)[C@@H](O)CC1=O)[C@H](C)C[C@@H]2OC [tacrolimus] | ≤ 1 | reprecipitated immediately after the beginning of the test | ≥ 90 | approximately 20% |  |  |  |  |  |  |  |  |  |
| Cc1cccc(C)c1N(CC(=O)Nc1ccc(-c2ncon2)cc1)C(=O)C1CCS(=O)(=O)CC1 [compound A, N-(2,6-Dimethylphenyl)-N-(2-{[4-(1,2,4-oxadiazol-3-yl)phenyl]amino}-2-oxoethyl)tetrahydro-2H-thiopyran-4-carboxamide 1,1-dioxide] |  |  |  |  | approximately 75% | approximately 30% | approximately 30% | reprecipitated immediately after the beginning of the test | a high solubility was maintained for a long time | maintained for a long time | reprecipitated immediately after the beginning of the test | approximately 75% | approximately 30% |
